Data as given in US20230172206A1 (BASF SE, priority 2020, published 2023).

The molecules below were run on Phakopsora pachyrhizi (F129L) (assay: Protective control of soybean rust on soybeans (PHAKPA P2)). Settings: protective P2, 4 ppm, soybean rust F129L isolate.
Assay type: in vivo

Structure (SMILES) | % PHAKPA (F129L) Disease level P2 at 4 ppm
CO/N=C(/C(=O)OC)c1cccc(C)c1CO/N=C(\C)c1cc(F)ccc1C(F)(F)F [compound 249] | 87%
CO/N=C(/C(=O)OC)c1cccc(C)c1CO/N=C(\CC(F)(F)F)c1cccc(C(F)(F)F)c1 [compound 250] | 90%
CO/N=C(/C(=O)OC)c1cccc(C)c1CO/N=C(\C)c1cc(Cl)ccc1C(F)(F)F [compound 251] | 80%
CNC(=O)/C(=N/OC)c1cccc(C)c1CO/N=C(\C)c1ccccc1OC(F)F [compound 252] | 50%
CO/N=C(/C(=O)OC)c1cccc(C)c1CO/N=C(\C)c1ccccc1OC(F)F [compound 253] | 100%
CO/N=C(/C(=O)OC)c1cccc(C)c1CO/N=C(\C)c1cc(F)ccc1Br [compound 254] | 100%
CNC(=O)/C(=N/OC)c1cccc(C)c1CO/N=C(\CC(F)(F)F)c1cc(Cl)cc(Cl)c1 [compound 255] | 97%
CO/N=C(/C(=O)OC)c1cccc(C)c1CO/N=C(\C)c1ccc(F)cc1Cl [compound 256] | 50%
CO/N=C(/C(=O)OC)c1cccc(C)c1CO/N=C(\C)c1ccc(Br)cc1C(F)(F)F [compound 257] | 93%
CNC(=O)/C(=N/OC)c1cccc(C)c1CO/N=C(\C)c1ccc(Br)cc1C(F)(F)F [compound 258] | 32%
CO/N=C(/C(=O)OC)c1cccc(C)c1CO/N=C(\C)c1ccc(OC(F)(F)F)cc1C [compound 259] | 80%
CNC(=O)/C(=N/OC)c1cccc(C)c1CO/N=C(\C)c1ccc(F)cc1C(F)(F)F [compound 260] | 22%
CNC(=O)/C(=N/OC)c1cccc(C)c1CO/N=C(\C)c1ccc(OC(F)(F)F)cc1C [compound 261] | 70%
CNC(=O)/C(=N/OC)c1cccc(C)c1CO/N=C(\C)c1ccc(F)cc1Cl [compound 262] | 63%
CO/N=C(/C(=O)OC)c1cccc(C)c1CO/N=C(\C)c1ccc(F)cc1C(F)(F)F [compound 263] | 80%
CO/N=C(/C(=O)OC)c1cccc(C)c1CO/N=C(\C)c1ccc(F)cc1F [compound 266] | 67%
CNC(=O)/C(=N/OC)c1cccc(C)c1CO/N=C(\C)c1ccc(F)cc1F [compound 267] | 2%
CO/N=C(/C(=O)OC)c1cccc(C)c1CO/N=C(\C)c1ccc(OC(F)(F)F)cc1Cl [compound 268] | 63%

Same assay, conditions: protective P2, 16 ppm, soybean rust F129L isolate

Structure (SMILES) | % PHAKPA (F129L) Disease level P2 at 16 ppm
CO/N=C(/C(=O)OC)c1cccc(C)c1CO/N=C(\C)c1cc(F)ccc1C(F)(F)F [compound 249] | 37%
CO/N=C(/C(=O)OC)c1cccc(C)c1CO/N=C(\CC(F)(F)F)c1cccc(C(F)(F)F)c1 [compound 250] | 90%
CO/N=C(/C(=O)OC)c1cccc(C)c1CO/N=C(\C)c1cc(Cl)ccc1C(F)(F)F [compound 251] | 80%
CNC(=O)/C(=N/OC)c1cccc(C)c1CO/N=C(\C)c1ccccc1OC(F)F [compound 252] | 3%
CO/N=C(/C(=O)OC)c1cccc(C)c1CO/N=C(\C)c1ccccc1OC(F)F [compound 253] | 87%
CO/N=C(/C(=O)OC)c1cccc(C)c1CO/N=C(\C)c1cc(F)ccc1Br [compound 254] | 77%
CNC(=O)/C(=N/OC)c1cccc(C)c1CO/N=C(\CC(F)(F)F)c1cc(Cl)cc(Cl)c1 [compound 255] | 83%
CO/N=C(/C(=O)OC)c1cccc(C)c1CO/N=C(\C)c1ccc(F)cc1Cl [compound 256] | 18%
CO/N=C(/C(=O)OC)c1cccc(C)c1CO/N=C(\C)c1ccc(Br)cc1C(F)(F)F [compound 257] | 35%
CNC(=O)/C(=N/OC)c1cccc(C)c1CO/N=C(\C)c1ccc(Br)cc1C(F)(F)F [compound 258] | 7%
CO/N=C(/C(=O)OC)c1cccc(C)c1CO/N=C(\C)c1ccc(OC(F)(F)F)cc1C [compound 259] | 17%
CNC(=O)/C(=N/OC)c1cccc(C)c1CO/N=C(\C)c1ccc(F)cc1C(F)(F)F [compound 260] | 0%
CNC(=O)/C(=N/OC)c1cccc(C)c1CO/N=C(\C)c1ccc(OC(F)(F)F)cc1C [compound 261] | 9%
CNC(=O)/C(=N/OC)c1cccc(C)c1CO/N=C(\C)c1ccc(F)cc1Cl [compound 262] | 1%
CO/N=C(/C(=O)OC)c1cccc(C)c1CO/N=C(\C)c1ccc(F)cc1C(F)(F)F [compound 263] | 15%
CO/N=C(/C(=O)OC)c1cccc(C)c1CO/N=C(\C)c1ccc(F)cc1F [compound 266] | 18%
CNC(=O)/C(=N/OC)c1cccc(C)c1CO/N=C(\C)c1ccc(F)cc1F [compound 267] | 0%
CO/N=C(/C(=O)OC)c1cccc(C)c1CO/N=C(\C)c1ccc(OC(F)(F)F)cc1Cl [compound 268] | 6%

Each molecule was assayed on Phakopsora pachyrhizi (F129L) (assay: Protective control of soybean rust on soybeans (PHAKPA P6)). Settings: protective P6, 4 ppm, soybean rust F129L isolate.
Assay type: in vivo

Structure (SMILES) | % PHAKPA (F129L) Disease level P6 at 4 ppm
CO/N=C(/C(=O)OC)c1cccc(C)c1CO/N=C(\C)c1cc(F)ccc1C(F)(F)F [compound 249] | 90%
CO/N=C(/C(=O)OC)c1cccc(C)c1CO/N=C(\CC(F)(F)F)c1cccc(C(F)(F)F)c1 [compound 250] | 90%
CO/N=C(/C(=O)OC)c1cccc(C)c1CO/N=C(\C)c1cc(Cl)ccc1C(F)(F)F [compound 251] | 80%
CNC(=O)/C(=N/OC)c1cccc(C)c1CO/N=C(\C)c1ccccc1OC(F)F [compound 252] | 87%
CO/N=C(/C(=O)OC)c1cccc(C)c1CO/N=C(\C)c1ccccc1OC(F)F [compound 253] | 100%
CO/N=C(/C(=O)OC)c1cccc(C)c1CO/N=C(\C)c1cc(F)ccc1Br [compound 254] | 100%
CNC(=O)/C(=N/OC)c1cccc(C)c1CO/N=C(\CC(F)(F)F)c1cc(Cl)cc(Cl)c1 [compound 255] | 100%
CO/N=C(/C(=O)OC)c1cccc(C)c1CO/N=C(\C)c1ccc(F)cc1Cl [compound 256] | 70%
CO/N=C(/C(=O)OC)c1cccc(C)c1CO/N=C(\C)c1ccc(Br)cc1C(F)(F)F [compound 257] | 100%
CNC(=O)/C(=N/OC)c1cccc(C)c1CO/N=C(\C)c1ccc(Br)cc1C(F)(F)F [compound 258] | 73%
CO/N=C(/C(=O)OC)c1cccc(C)c1CO/N=C(\C)c1ccc(OC(F)(F)F)cc1C [compound 259] | 93%
CNC(=O)/C(=N/OC)c1cccc(C)c1CO/N=C(\C)c1ccc(F)cc1C(F)(F)F [compound 260] | 22%
CNC(=O)/C(=N/OC)c1cccc(C)c1CO/N=C(\C)c1ccc(OC(F)(F)F)cc1C [compound 261] | 87%
CNC(=O)/C(=N/OC)c1cccc(C)c1CO/N=C(\C)c1ccc(F)cc1Cl [compound 262] | 47%
CO/N=C(/C(=O)OC)c1cccc(C)c1CO/N=C(\C)c1ccc(F)cc1C(F)(F)F [compound 263] | 73%
CO/N=C(/C(=O)OC)c1cccc(C)c1CO/N=C(\C)c1ccc(F)cc1F [compound 266] | 90%
CNC(=O)/C(=N/OC)c1cccc(C)c1CO/N=C(\C)c1ccc(F)cc1F [compound 267] | 10%
CO/N=C(/C(=O)OC)c1cccc(C)c1CO/N=C(\C)c1ccc(OC(F)(F)F)cc1Cl [compound 268] | 60%

Same assay, conditions: protective P6, 16 ppm, soybean rust F129L isolate

Structure (SMILES) | % PHAKPA (F129L) Disease level P6 at 16 ppm
CO/N=C(/C(=O)OC)c1cccc(C)c1CO/N=C(\C)c1cc(F)ccc1C(F)(F)F [compound 249] | 43%
CO/N=C(/C(=O)OC)c1cccc(C)c1CO/N=C(\CC(F)(F)F)c1cccc(C(F)(F)F)c1 [compound 250] | 80%
CO/N=C(/C(=O)OC)c1cccc(C)c1CO/N=C(\C)c1cc(Cl)ccc1C(F)(F)F [compound 251] | 80%
CNC(=O)/C(=N/OC)c1cccc(C)c1CO/N=C(\C)c1ccccc1OC(F)F [compound 252] | 32%
CO/N=C(/C(=O)OC)c1cccc(C)c1CO/N=C(\C)c1ccccc1OC(F)F [compound 253] | 57%
CO/N=C(/C(=O)OC)c1cccc(C)c1CO/N=C(\C)c1cc(F)ccc1Br [compound 254] | 100%
CNC(=O)/C(=N/OC)c1cccc(C)c1CO/N=C(\CC(F)(F)F)c1cc(Cl)cc(Cl)c1 [compound 255] | 87%
CO/N=C(/C(=O)OC)c1cccc(C)c1CO/N=C(\C)c1ccc(F)cc1Cl [compound 256] | 20%
CO/N=C(/C(=O)OC)c1cccc(C)c1CO/N=C(\C)c1ccc(Br)cc1C(F)(F)F [compound 257] | 57%
CNC(=O)/C(=N/OC)c1cccc(C)c1CO/N=C(\C)c1ccc(Br)cc1C(F)(F)F [compound 258] | 8%
CO/N=C(/C(=O)OC)c1cccc(C)c1CO/N=C(\C)c1ccc(OC(F)(F)F)cc1C [compound 259] | 40%
CNC(=O)/C(=N/OC)c1cccc(C)c1CO/N=C(\C)c1ccc(F)cc1C(F)(F)F [compound 260] | 0%
CNC(=O)/C(=N/OC)c1cccc(C)c1CO/N=C(\C)c1ccc(OC(F)(F)F)cc1C [compound 261] | 32%
CNC(=O)/C(=N/OC)c1cccc(C)c1CO/N=C(\C)c1ccc(F)cc1Cl [compound 262] | 4%
CO/N=C(/C(=O)OC)c1cccc(C)c1CO/N=C(\C)c1ccc(F)cc1C(F)(F)F [compound 263] | 22%
CO/N=C(/C(=O)OC)c1cccc(C)c1CO/N=C(\C)c1ccc(F)cc1F [compound 266] | 43%
CNC(=O)/C(=N/OC)c1cccc(C)c1CO/N=C(\C)c1ccc(F)cc1F [compound 267] | 4%
CO/N=C(/C(=O)OC)c1cccc(C)c1CO/N=C(\C)c1ccc(OC(F)(F)F)cc1Cl [compound 268] | 17%
